Structures can show the parent of a compound that is named as a salt. Where two headings read alike, the source gives them in different places.
How the values were obtained:
Type in all cases: biochemical
[1] = target: Human HDAC1 (Homo sapiens (Human), UniProt Q13547); assay: HDAC1 fluorogenic peptide deacetylation inhibition assay
[2] = target: Human HDAC6 (Homo sapiens (Human), UniProt Q9UBN7); assay: HDAC6 fluorogenic peptide deacetylation inhibition assay; conditions: for HDAC6 Selectivity (HDAC1/HDAC6): ratio HDAC1 IC50/HDAC6 IC50; for BEI: binding efficiency index, BEI=pIC50/MW, MW in kDa
Chain of Human HDAC6 (Q9UBN7 whole entry, canonical isoform): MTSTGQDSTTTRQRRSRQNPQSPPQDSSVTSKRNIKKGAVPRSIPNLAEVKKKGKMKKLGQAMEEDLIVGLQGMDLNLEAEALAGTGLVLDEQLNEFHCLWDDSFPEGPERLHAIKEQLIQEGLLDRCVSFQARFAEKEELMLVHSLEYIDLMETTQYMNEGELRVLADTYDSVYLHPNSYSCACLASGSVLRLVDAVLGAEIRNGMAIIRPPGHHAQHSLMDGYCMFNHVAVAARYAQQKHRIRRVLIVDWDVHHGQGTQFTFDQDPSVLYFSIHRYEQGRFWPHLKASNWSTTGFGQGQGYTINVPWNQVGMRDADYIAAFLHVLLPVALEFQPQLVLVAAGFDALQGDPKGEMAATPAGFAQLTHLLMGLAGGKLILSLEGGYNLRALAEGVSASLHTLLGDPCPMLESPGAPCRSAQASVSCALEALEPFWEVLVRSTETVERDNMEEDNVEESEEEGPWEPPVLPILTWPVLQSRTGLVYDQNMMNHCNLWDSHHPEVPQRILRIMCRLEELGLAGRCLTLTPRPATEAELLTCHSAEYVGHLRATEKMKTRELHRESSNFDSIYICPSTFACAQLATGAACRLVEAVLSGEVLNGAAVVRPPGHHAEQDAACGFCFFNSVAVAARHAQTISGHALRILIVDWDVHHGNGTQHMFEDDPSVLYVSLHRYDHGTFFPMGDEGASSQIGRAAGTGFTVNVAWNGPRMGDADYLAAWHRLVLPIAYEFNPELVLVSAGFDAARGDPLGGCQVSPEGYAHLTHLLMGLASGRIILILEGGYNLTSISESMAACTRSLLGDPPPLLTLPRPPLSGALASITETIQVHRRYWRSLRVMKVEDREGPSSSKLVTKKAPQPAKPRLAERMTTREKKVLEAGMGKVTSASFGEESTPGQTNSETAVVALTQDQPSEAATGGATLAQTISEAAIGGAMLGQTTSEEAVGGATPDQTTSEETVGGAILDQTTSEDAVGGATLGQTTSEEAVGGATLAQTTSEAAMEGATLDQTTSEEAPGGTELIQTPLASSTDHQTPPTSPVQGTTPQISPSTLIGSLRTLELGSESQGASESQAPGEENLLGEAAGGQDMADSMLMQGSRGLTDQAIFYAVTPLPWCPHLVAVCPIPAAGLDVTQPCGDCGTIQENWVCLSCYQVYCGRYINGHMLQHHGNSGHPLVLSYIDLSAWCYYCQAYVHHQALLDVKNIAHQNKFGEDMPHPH

[3] = target: HDAC2 (Homo sapiens (Human), UniProt Q92769); assay: HDAC2 fluorogenic peptide deacetylation inhibition assay; conditions: average of two experiments; read-out: HDAC Isoform IC50 (μM) 2
Chain of HDAC2 (Q92769 whole entry, canonical isoform): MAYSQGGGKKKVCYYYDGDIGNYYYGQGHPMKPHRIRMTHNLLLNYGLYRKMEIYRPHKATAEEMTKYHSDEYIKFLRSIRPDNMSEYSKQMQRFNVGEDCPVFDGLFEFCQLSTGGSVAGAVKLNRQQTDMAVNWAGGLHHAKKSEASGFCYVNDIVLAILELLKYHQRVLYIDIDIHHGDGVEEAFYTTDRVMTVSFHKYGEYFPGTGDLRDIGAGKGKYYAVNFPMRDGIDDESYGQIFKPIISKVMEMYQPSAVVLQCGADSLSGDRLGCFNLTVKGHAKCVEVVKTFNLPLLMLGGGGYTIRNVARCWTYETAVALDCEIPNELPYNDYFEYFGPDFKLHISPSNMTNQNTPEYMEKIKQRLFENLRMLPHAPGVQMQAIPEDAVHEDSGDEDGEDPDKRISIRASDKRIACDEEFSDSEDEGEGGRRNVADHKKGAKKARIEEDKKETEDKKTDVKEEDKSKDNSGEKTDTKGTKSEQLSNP

[4] = target: HDAC8 (Homo sapiens (Human), UniProt Q9BY41); assay: HDAC8 inhibition assay (fluorogenic diacyl peptide)
Chain of HDAC8 (Q9BY41 whole entry, canonical isoform): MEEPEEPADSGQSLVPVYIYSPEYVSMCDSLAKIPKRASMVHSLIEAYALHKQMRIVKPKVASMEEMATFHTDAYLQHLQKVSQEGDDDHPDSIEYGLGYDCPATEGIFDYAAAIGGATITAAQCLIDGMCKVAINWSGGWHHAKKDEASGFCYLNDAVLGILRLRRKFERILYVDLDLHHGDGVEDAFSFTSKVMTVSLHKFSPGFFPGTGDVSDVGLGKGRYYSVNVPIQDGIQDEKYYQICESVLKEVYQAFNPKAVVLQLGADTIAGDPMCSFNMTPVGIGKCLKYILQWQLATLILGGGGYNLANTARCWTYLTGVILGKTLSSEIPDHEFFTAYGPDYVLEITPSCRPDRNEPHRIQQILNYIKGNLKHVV

[5] = target: HDAC9 (Homo sapiens (Human), UniProt Q9UKV0); assay: HDAC9 inhibition assay (Acetyl-Lys(trifluoroacetyl)-AMC substrate); conditions: average of two experiments; read-out: HDAC Isoform IC50 (μM) 9
Chain of HDAC9 (Q9UKV0 whole entry, canonical isoform): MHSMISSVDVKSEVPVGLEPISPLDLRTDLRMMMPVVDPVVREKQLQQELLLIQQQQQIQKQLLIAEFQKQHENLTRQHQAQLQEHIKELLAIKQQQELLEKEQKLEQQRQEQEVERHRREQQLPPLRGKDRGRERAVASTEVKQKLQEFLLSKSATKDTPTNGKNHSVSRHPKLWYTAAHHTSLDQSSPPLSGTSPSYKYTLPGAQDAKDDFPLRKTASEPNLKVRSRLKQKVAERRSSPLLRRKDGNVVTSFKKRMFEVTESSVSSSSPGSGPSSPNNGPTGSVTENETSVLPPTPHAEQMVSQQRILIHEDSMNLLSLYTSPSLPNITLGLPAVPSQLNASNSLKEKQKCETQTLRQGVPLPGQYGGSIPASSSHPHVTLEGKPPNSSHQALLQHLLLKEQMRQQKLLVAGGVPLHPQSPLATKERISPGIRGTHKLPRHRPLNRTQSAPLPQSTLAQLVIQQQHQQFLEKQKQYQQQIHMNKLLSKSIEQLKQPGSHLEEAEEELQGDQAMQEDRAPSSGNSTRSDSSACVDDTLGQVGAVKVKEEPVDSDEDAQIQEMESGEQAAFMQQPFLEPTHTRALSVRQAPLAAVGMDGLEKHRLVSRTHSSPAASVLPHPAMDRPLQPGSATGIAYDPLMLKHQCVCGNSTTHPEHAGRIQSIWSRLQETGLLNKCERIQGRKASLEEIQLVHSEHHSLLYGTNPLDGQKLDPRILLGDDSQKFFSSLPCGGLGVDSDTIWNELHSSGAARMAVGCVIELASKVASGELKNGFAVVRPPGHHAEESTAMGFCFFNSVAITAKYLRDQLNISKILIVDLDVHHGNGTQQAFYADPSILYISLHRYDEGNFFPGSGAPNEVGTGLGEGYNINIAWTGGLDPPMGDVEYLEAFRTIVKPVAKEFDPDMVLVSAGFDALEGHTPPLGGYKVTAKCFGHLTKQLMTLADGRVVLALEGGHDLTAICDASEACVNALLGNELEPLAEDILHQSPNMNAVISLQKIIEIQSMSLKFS

[6] = average of two experiments, read-out: HDAC Isoform IC50 (μM) 1
[7] = average of two experiments, read-out: HDAC Isoform IC50 (μM) 6
[8] = average of two experiments, read-out: HDAC Isoform IC50 (μM) 8
[9] = Table 3, mean of two experiments ± standard deviation, read-out: HDAC1 IC50
[10] = Table 3, mean of two experiments ± standard deviation, read-out: HDAC6 IC50
[11] = Table 3, mean of two experiments ± standard deviation, read-out: HDAC8 IC50

Chain of Human HDAC1 (Q13547 whole entry): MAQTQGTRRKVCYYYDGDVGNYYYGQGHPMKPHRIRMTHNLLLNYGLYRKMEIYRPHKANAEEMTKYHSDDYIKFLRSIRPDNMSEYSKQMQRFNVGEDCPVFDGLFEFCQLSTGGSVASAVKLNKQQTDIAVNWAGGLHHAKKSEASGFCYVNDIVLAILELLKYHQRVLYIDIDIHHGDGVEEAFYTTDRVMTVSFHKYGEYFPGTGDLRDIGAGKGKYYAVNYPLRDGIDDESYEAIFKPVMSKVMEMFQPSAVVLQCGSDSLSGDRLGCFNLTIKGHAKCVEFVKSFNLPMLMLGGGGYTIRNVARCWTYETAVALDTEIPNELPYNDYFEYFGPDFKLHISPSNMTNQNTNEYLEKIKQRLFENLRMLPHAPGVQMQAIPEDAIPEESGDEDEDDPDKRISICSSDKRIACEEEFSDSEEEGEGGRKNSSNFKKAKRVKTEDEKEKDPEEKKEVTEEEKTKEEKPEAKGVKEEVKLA

SMILES | IC50 [1, 6] [µM] | IC50 [2, 7] [µM] | HDAC6 Selectivity (HDAC1/HDAC6) [2] | further results
Cc1c(CN)c2ccccc2n1Cc1ccc(C(=O)NO)cc1 | 3.09 | 0.00146 | 2116 | –
O=C(NO)c1ccc(Cn2ccc3ccccc32)cc1 [Compound 2, 4-((1H-Indol-1-yl)methyl)-N-hydroxybenzamide] | 5.83 | 0.00975 | – | IC50 [3]: 9.19 µM; IC50 [4, 8]: 0.417 µM; IC50 [5]: 8.16 µM
Cc1cc2ccccc2n1Cc1ccc(C(=O)NO)cc1 [Compound 4, N-Hydroxy-4-((2-methyl-1H-indol-1-yl)methyl)benzamide] | 5.34 | 0.00251 | – | IC50 [3]: 8.14 µM; selectivity against HDAC1 ([2]; HDAC6 vs HDAC1, running text): 2125 fold; IC50 ([2]; read-out: HDAC6 IC50): 0.0025 µM; IC50 [4, 8]: 0.397 µM; IC50 [5]: 18.3 µM
Cc1cn(Cc2ccc(C(=O)NO)cc2)c2ccccc12 [Compound 6, N-Hydroxy-4-((3-methyl-1H-indol-1-yl)methyl)benzamide] | 6.79 | 0.00511 | – | IC50 [3]: 11.9 µM; IC50 [4, 8]: 0.911 µM; IC50 [5]: 14.5 µM
Cc1c(C)n(Cc2ccc(C(=O)NO)cc2)c2ccccc12 [Compound 8, 4-((2,3-Dimethyl-1H-indol-1-yl)methyl)-N-hydroxybenzamide] | 12.2 | 0.00408 | – | –
O=C(NO)c1ccc(Cn2cc(Cc3ccccc3)c3ccccc32)cc1 [Compound 10, 4-((3-Benzyl-1H-indol-1-yl)methyl)-N-hydroxybenzamide] | 13.2 | 0.0293 | – | IC50 [4, 8]: 0.324 µM
O=C(NO)c1ccc(Cn2cnc3cncnc32)cc1 [Compound 12, 4-((9H-Purin-9-yl)methyl)-N-hydroxybenzamide] | 0.94 | 0.00348 | – | –
O=C(NO)c1ccc(Cn2cnc3ncncc32)cc1 [Compound 14, 4-((7H-Purin-7-yl)methyl)-N-hydroxybenzamide] | 3.56 | 0.0142 | – | –
CN1CCN(CCc2cn(Cc3ccc(C(=O)NO)cc3)c3ccccc23)CC1 [Compound 17, N-Hydroxy-4-{3-[2-(4-methyl-piperazin-1-yl)-ethyl]-indol-1-ylmethyl}-benzamide] | 1.23 | 0.00294 | – | IC50 [4, 8]: 0.174 µM
Cc1c(CN(C)C)c2ccccc2n1Cc1ccc(C(=O)NO)cc1 [Compound 21, 4-((3-((Dimethylamino)methyl)-2-methyl-1H-indol-1-yl)methyl)-N-hydroxybenzamide] | 3.09 | 0.00146 | – | –
NC(=O)c1ccc(Cn2ccc3ccccc32)cc1 [Compound 22, 4-((1H-Indol-1-yl)methyl)benzamide] | > 30 | > 30 | – | –
CC(=O)c1ccc(Cn2ccc3ccccc32)cc1 [Compound 23, 1-(4-((1H-Indol-1-yl)methyl)phenyl)ethanone] | > 30 | > 30 | – | –
O=C(NO)c1ccc(Cn2cnc3ccccc32)cc1 [Compound 27, 4-((1H-Benzo[d]imidazol-1-yl)methyl)-N-hydroxybenzamide.TFA] | 8.54 | 0.0294 | – | –
CS(=O)(=O)NCCc1cn(Cc2ccc(C(=O)NO)cc2)c2ccccc12 [Compound 30, N-Hydroxy-4-((3-(2-(methylsulfonamido)ethyl)-1H-indol-1-yl)methyl)benzamide] | 0.623 | 0.00017 | – | –
Cc1nc2ccccc2n1Cc1ccc(C(=O)NO)cc1 [Compound 32, N-hydroxy-4-((2-methyl-1H-benzo[d]imidazol-1-yl)methyl)benzamide] | 8.79 | 0.0092 | – | –
CC(=O)NCCCc1nc2ccccc2n1Cc1ccc(C(=O)NO)cc1 [Compound 36, 4-((2-(3-Acetamidopropyl)-1H-benzo[d]imidazol-1-yl)methyl)-N-hydroxybenzamide.TFA] | 14.7 | 0.047 | – | –
CN(C)CCc1nc2ccccc2n1Cc1ccc(C(=O)NO)cc1 [Compound 38, 4-((2-(2-(Dimethylamino)ethyl)-1H-benzo[d]imidazol-1-yl)methyl)-N-hydroxybenzamide] | 52.4 | 0.126 | – | –
CC(C)c1nc2ccccc2n1Cc1ccc(C(=O)NO)cc1 [Compound 39, N-Hydroxy-4-((2-isopropyl-1H-benzo[d]imidazol-1-yl)methyl)benzamide] | 27.7 | 0.047 | – | –
O=C(NO)c1ccc(Cn2cccc2)cc1 [Compound 41, 4-((1H-Pyrrol-1-yl)methyl)-N-hydroxybenzamide] | 5.73 | 0.0313 | – | –
O=C(NO)c1ccc(Cn2cccn2)cc1 [Compound 43, 4-((1H-Pyrazol-1-yl)methyl)-N-hydroxybenzamide] | 1.47 | 0.0109 | – | –
O=C(NO)c1ccc(Cc2ccncc2)cc1 [Compound 45, N-Hydroxy-4-(pyridin-4-ylmethyl)benzamide] | 6.47 | 0.0358 | – | –
CN(C)c1ccc(Cc2ccc(C(=O)NO)cc2)cc1 [Compound 47, 4-(4-(Dimethylamino)benzyl)-N-hydroxybenzamide] | 6.87 | 0.0119 | – | –
CN(C)c1cccc(Cc2ccc(C(=O)NO)cc2)c1 [Compound 49, 4-(3-(Dimethylamino)benzyl)-N-hydroxybenzamide] | 12.2 | 0.0701 | – | –

SMILES | IC50 [1, 6] [µM] | IC50 [2, 7] [µM] | HDAC6 Selectivity (HDAC1/HDAC6) [2] | further results
CCN(CC)Cc1ccc(C(=O)NO)cc1 [Compound 51, 4-((Diethylamino)methyl)-N-hydroxybenzamide] | > 30 | 6.28 | – | IC50 [4, 8]: 9.43 µM
CC(C)N(Cc1ccc(C(=O)NO)cc1)C(C)C [Compound 53, 4-((Diisopropylamino)methyl)-N-hydroxybenzamide] | 23.8 | 0.124 | – | IC50 [4, 8]: 1.92 µM
O=C(NO)c1ccc(CN(c2ccccc2)c2ccccc2)cc1 [Compound 55, 4-((Diphenylamino)methyl)-N-hydroxybenzamide] | 6.66 | 4.5 | – | selectivity for HDAC6 vs HDAC8 [2]: over 500 fold; IC50 [4, 8]: 2.38 µM
O=C(NO)c1ccc(CN2CCCC2)cc1 [Compound 57, N-Hydroxy-4-(pyrrolidin-1-ylmethyl)benzamide.TFA] | 29 | 0.54 | – | IC50 [4, 8]: 1.2 µM
COC[C@@H]1CCCN1Cc1ccc(C(=O)NO)cc1 [Compound 59, (S)-N-Hydroxy-4-((2-(methoxymethyl)pyrrolidin-1-yl)methyl)benzamide.TFA] | 27.9 | 0.15 | – | IC50 [4, 8]: 1.82 µM
COC[C@H]1CCCN1Cc1ccc(C(=O)NO)cc1 [Compound 61] | > 30 | 1.25 | – | IC50 [4, 8]: 5.59 µM
O=C(NO)c1ccc(Cn2ccc3ccccc32)cc1 [drawing 136] | – | – | 598 | IC50 [3]: 9.19 µM; IC50 [5]: 8.16 µM
Cc1cc2ccccc2n1Cc1ccc(C(=O)NO)cc1 [drawing 137] | – | – | 2127 | IC50 [3]: 8.14 µM; IC50 [5]: 18.3 µM
Cc1cn(Cc2ccc(C(=O)NO)cc2)c2ccccc12 [drawing 138] | – | – | 1329 | IC50 [3]: 11.9 µM; IC50 [5]: 14.5 µM
O=C(NO)c1ccc(Cn2cc(Cc3ccccc3)c3ccccc32)cc1 [drawing 140] | – | – | 451 | –
CN1CCN(CCc2cn(Cc3ccc(C(=O)NO)cc3)c3ccccc23)CC1 [drawing 142] | 1.23 | 0.00294 | 418 | IC50 [4, 8]: 0.174 µM
O=C(NO)c1ccc(Cn2cnc3cncnc32)cc1 [drawing 143] | – | – | 270 | –
O=C(NO)c1ccc(Cn2cnc3ncncc32)cc1 [drawing 144] | – | – | 251 | –
O=C(NO)c1ccc(Cc2ccncc2)cc1 [drawing 145] | – | – | 181 | –
CN(C)c1ccc(Cc2ccc(C(=O)NO)cc2)cc1 [drawing 146] | – | – | 577 | –
O=C(NO)c1ccc(Cn2cccc2)cc1 [drawing 147] | – | – | 183 | –
O=C(NO)c1ccc(Cn2cccn2)cc1 [drawing 148] | – | – | 135 | –
O=C(NO)c1ccc(CN2CCCC2)cc1 [drawing 150] | – | – | 54 | –
CCN(CC)Cc1ccc(C(=O)NO)cc1 [drawing 153] | – | – | >5 | –
O=C(NO)c1ccc(Cn2ccc3ccccc32)cc1 [drawing 157] | – | – | – | IC50 [1, 9]: 5.83 ± 0.7 µM; IC50 [2, 10]: 0.0097 ± 0.0003 µM; BEI [2]: 30.1; IC50 [4, 11]: 0.417 ± 0.04 µM
Cc1cc2ccccc2n1Cc1ccc(C(=O)NO)cc1 [drawing 158] | – | – | – | IC50 [1, 9]: 5.34 ± 0.16 µM; IC50 [2, 10]: 0.0025 ± 0.0004 µM; BEI [2]: 30.7; IC50 [4, 11]: 0.397 ± 0.099 µM
Cc1cn(Cc2ccc(C(=O)NO)cc2)c2ccccc12 [drawing 159] | – | – | – | IC50 [1, 9]: 6.79 ± 0.29 µM; IC50 [2, 10]: 0.0051 ± 0.0008 µM; BEI [2]: 29.6; IC50 [4, 11]: 0.911 ± 0.042 µM
O=C(NO)c1ccc(CN(c2ccccc2)c2ccccc2)cc1 [drawing 162] | – | – | – | IC50 [1, 9]: 6.66 ± 0.51 µM; BEI [2]: 26.3; IC50 [4, 11]: 2.38 ± 0.25 µM

Reference: patent publication US9249087B2, “HDAC inhibitors and therapeutic methods using the same” (THE BOARD OF TRUSTEES OF THE UNIVERSITY OF ILLINOIS, priority 2011, dated 2016)
